Like-named read-outs stand apart in the source and are kept apart here.
Columns and labels:
MT-2 cells = experiment: Cytotoxicity in MT-2 cells
[1] = Stability / hydrolysis in MT-2 cell extract; type: in vitro ADME; details: for MT-2 extract hydrolysis product: 37° C., HEPES buffer pH 7.4
Description: (§1) The in vitro metabolism and stability of separated diastereomers were determined in PLCE, MT-2 extract and human plasma. A biological sample listed below, 80 μL, was transferred into a screw-capped centrifuge tube and incubated at 37° C. for 5 min. A solution containing 0.2 mg/mL of the test compound in a suitable buffer, 20 μL, was added to the biological sample and mixed. The reaction mixture, 20 μL, was immediately sampled and mixed with 60 μL of methanol containing 0.015 mg/mL of 2-hydroxymethylnaphthalene as an internal standard for HPLC analysis. The sample was taken as the time-zero sample. Then, at specific time points, the reaction mixture, 20 μL, was sampled and mixed with 60 μl of methanol containing the internal standard. The mixture thus obtained was centrifuged at 15,000 G for 5 min and the supernatant was analyzed with HPLC under the conditions described below.
(§2) The biological samples evaluated are as follows, • (1) PLCE (porcine liver carboxyesterase from Sigma, 160 u/mg protein, 21 mg protein/mL) diluted 20 fold with PBS (phosphated-buffered saline). • (2) MT-2 cell extract was prepared from MT-2 cells according to the published procedure [A. Pompon, I. Lefebvre, J.-L. Imbach, S. Kahn, and D. Farquhar, “Antiviral Chemistry & Chemotherapy”, 5:91-98 (1994)] except for using HEPES buffer described below as the medium. • (3) Human plasma (pooled normal human plasma from George King Biomedical Systems, Inc.)
In the study for MT-2 cell extracts, the test compound was dissolved in HEPES buffer. HEPES buffer contains 0.010 M HEPES, 0.05 M potassium chloride, 0.005 M magnesium chloride, and 0.005 M dl-dithiothreitol. pH 7.4 at 37° C.
(§3) The HPLC analysis was carried out under the following conditions.

[2] = Excretion and tissue distribution of radiolabelled GS-7340 in dogs; details: dogs, oral 10 mg-eq. PMPA/kg
Description: Plasma and peripheral blood mononuclear cells (PBMCs) were obtained over the 24-hr period. Urine and feces were cage collected over 24 hr. At 24 h after the dose, the animals were sacrificed and tissues removed for analysis. Total radioactivity in tissues was determined by oxidation and liquid scintillation counting.

[3] = Stability in human plasma; type: in vitro ADME; details: for Human Plasma Stability (HP) product / Human Plasma Stability (HP) t1/2: 37° C., TBS pH 7.5
Description: as §1, §2
In the study for human plasma, the test compound was dissolved in TBS. TBS (tris-buffered saline, Sigma) contains 0.05 M Tris, 0.0027 M potassium chloride, and 0.138 M sodium chloride. pH 7.5 at 37° C.
as §3

[4] = PMPA metabolites in plasma, PBMCs and RBCs after 1 h incubation in human blood
Description: After 1 hour, plasma, red blood cells (RBCs) and peripheral blood mononuclear cells (PBMCs) were isolated and analyzed by HPLC with radiometric detection.
Met. Lower case “p” designates phosphorylation.

HIV-1 = experiment: In vitro anti-HIV-1 activity in MT-2 cells; type: cell-based; details: Table 5 (selected IC50 data from Table 4); read-out: HIV IC50
[5] = test system: PLCE (porcine liver carboxyesterase); experiment: PLCE hydrolysis; type: in vitro ADME; details: 37° C., PBS pH 7.4
Description: as §1, §2
In the study for PLCE, the test compound was dissolved in PBS. PBS (phosphate-buffered saline, Sigma) contains 0.01 M phosphate, 0.0027 M potassium chloride, and 0.137 M sodium chloride. pH 7.4 at 37° C.
as §3

For `CC(C)OC(=O)[C@H](C)N[P@](=O)(CO[C@H](C)Cn1cnc2c(N)ncnc21)Oc1ccccc1` (single isomer, unassigned) [GS-7340], the CC50 (MT-2 cells; Table 4) was no less than 40000 nM, the CC50 (MT-2 cells; read-out: Cytotoxicity CC50, MT-2 cells, Table 1) was greater than 40000 nM and the “Stability T ½ MT-2 Cell Extract” value ([1]; MT-2 cell extract) was 0.472 h. For the same compound, the “% Dose” value ([2]; Abdominal fat) was 0.00%, the Conc. ([2]; Abdominal fat) was 0.90 ug-eq/g and the “% Dose” value ([2]; Adrenal Gland) was 0.00%. The “% Dose” value ([2]; Axillary Lymph Nodes) was 0.01%, the “% Dose” value ([2]; Bile) was 0.22% and the “% Dose” value ([2]; Bone Marrow) was 0.00%. For the same compound, the “% Dose” value ([2]; Brain) was 0.00%, the Conc. ([2]; Brain) was “<LOD” and the “% Dose” value ([2]; Cerebrospinal Fluid) was 0.00%. For the same compound, the Conc. ([2]; Cerebrospinal Fluid) was 0.00 ug-eq/g, the “% Dose” value ([2]; Duodenum) was 0.44% and the “% Dose” value ([2]; Eye (L + R)) was 0.00%. For the same compound, the Conc. ([2]; Eye (L + R)) was 0.23 ug-eq/g, the “% Dose” value ([2]; Feces) was 0.19% and the “% Dose” value ([2]; Femoral Bone) was 0.00%. For the same compound, the Conc. ([2]; Femoral Bone) was 0.28 ug-eq/g, the “% Dose” value ([2]; Gall bladder) was 0.04% and the “% Dose” value ([2]; Heart) was 0.15%. The “% Dose” value ([2]; Ileum) was 0.16%, the “% Dose” value ([2]; Iliac Lymph Nodes) was 0.01% and the “% Dose” value ([2]; Inguinal Lymph Nodes) was 0.00%. For the same compound, the “% Dose” value ([2]; Jejunum) was 0.79%, the “% Dose” value ([2]; Lungs) was 0.34% and the “% Dose” value ([2]; Mesenteric Lymph Nodes) was 0.04%. The “% Dose” value ([2]; Pancreas) was 0.01%, the “% Dose” value ([2]; Pituitary Gland) was 0.00% and the Conc. ([2]; Pituitary Gland) was 1.80 ug-eq/g. For the same compound, the “% Dose” value ([2]; Prostate) was 0.00%, the “% Dose” value ([2]; Salivary Gland (L + R)) was 0.03% and the “% Dose” value ([2]; Skeletal Muscle) was 0.01%. For the same compound, the “% Dose” value ([2]; Skin) was 0.00%, the Conc. ([2]; Skin) was 0.95 ug-eq/g and the “% Dose” value ([2]; Spinal Cord) was 0.00%. The Conc. ([2]; Spinal Cord) was 0.04 ug-eq/g, the “% Dose” value ([2]; Spleen) was 0.17% and the “% Dose” value ([2]; Stomach) was 0.26%. For the same compound, the “% Dose” value ([2]; Testes (L + R)) was 0.02%, the “% Dose” value ([2]; Thyroid Gland) was 0.00% and the “% Dose” value ([2]; Whole Blood) was 0.16%. For the same compound, the Conc. ([2]; Whole Blood) was 0.20 ug-eq/g, the “Stability T ½ Human Plasma” value ([3]; human plasma) was 1.5 h and the “Metabolites (% of Total Peak Area): GS 7340 (intact)” value ([4]; Plasma/FP) was 84%. For the same compound, the “Total C-14 Recovered” value ([4]; Plasma/FP, 60 μg-eq) was 43.0 μg-eq and the “Metabolites (% of Total Peak Area): GS 7340 (intact)” value ([4]; RBC/FP) was 57%.
For `CCOC(=O)C(C)NP(=O)(COC(C)Cn1cnc2c(N)ncnc21)Oc1ccccc1` (single isomer, unassigned) [compound 1], the IC50 (HIV-1) was 5 nM, the “MT-2 extract hydrolysis product” value [1] was “Met. X & PMPA” and the PLCE hydrolysis product [5] was “Met. X & PMPA”. The “Human Plasma Stability (HP) product” value [3] was “Met. Y” and the “Human Plasma Stability (HP) t1/2” value [3] was 2.47 h.
In the case of `CCOC(=O)C(C)NP(=O)(COC(C)Cn1cnc2c(N)ncnc21)Oc1ccccc1` (single isomer, unassigned) [compound 2], the IC50 (HIV-1) is reported as 50 nM, the “MT-2 extract hydrolysis product” value [1] is reported as “Met. X & PMPA” and the PLCE hydrolysis product [5] is reported as “Met. X & PMPA”. The “Human Plasma Stability (HP) product” value [3] was “Met. Y” and the “Human Plasma Stability (HP) t1/2” value [3] was 8.25 h.
In the case of `CCOC(=O)C(CC)NP(=O)(COC(C)Cn1cnc2c(N)ncnc21)Oc1ccccc1` (single isomer, unassigned) [compound 6], the IC50 (HIV-1) is reported as 30 nM, the PLCE hydrolysis product [5] is reported as “Met. X” and the “Human Plasma Stability (HP) product” value [3] is reported as “Met. Y”. For the same compound, the “Human Plasma Stability (HP) t1/2” value [3] was 4.28 h.
